Reference: US11040981B2, “Pyrrolotriazine compounds and methods of inhibiting TAM kinases” (Syros Pharmaceuticals, Inc., priority 2017, dated 2021)

What was measured:
AXL = target: T1, AXL (Homo sapiens, UniProt P30530); assay: TR-FRET kinase activity assay, AXL; type: biochemical; conditions: ATP at Km, 60 minutes
T1 sequence (P30530 26-894): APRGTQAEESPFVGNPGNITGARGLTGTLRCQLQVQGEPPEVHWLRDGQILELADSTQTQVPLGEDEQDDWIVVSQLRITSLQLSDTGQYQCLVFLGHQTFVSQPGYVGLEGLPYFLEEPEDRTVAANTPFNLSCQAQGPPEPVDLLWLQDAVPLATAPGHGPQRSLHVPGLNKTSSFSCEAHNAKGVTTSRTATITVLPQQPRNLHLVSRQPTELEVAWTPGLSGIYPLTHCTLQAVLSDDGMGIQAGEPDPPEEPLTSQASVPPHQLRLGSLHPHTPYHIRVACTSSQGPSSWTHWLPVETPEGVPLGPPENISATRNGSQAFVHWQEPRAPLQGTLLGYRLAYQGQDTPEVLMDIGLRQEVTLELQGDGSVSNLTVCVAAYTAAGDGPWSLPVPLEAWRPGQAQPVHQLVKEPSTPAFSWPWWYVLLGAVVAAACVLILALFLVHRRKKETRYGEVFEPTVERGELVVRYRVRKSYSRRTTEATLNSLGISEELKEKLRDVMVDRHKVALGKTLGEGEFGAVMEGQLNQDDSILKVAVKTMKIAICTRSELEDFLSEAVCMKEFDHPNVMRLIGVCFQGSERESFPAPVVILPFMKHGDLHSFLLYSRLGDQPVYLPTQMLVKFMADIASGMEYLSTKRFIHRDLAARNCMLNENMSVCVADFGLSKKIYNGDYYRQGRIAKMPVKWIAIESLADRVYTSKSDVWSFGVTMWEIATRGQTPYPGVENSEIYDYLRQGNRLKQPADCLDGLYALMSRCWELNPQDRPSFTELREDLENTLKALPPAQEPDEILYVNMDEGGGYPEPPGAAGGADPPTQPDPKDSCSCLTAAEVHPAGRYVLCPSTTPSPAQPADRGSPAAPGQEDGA
Procedure: (§1) IC50 values for compound inhibition of AXL, FLT3, MERTK and TYRO3 activity were determined by using a TR-FRET activity assay. A polypeptide substrate with a fluorescent label is phosphorylated on a tyrosine by each enzyme, where the now phosphorylated product is bound by a Europium-labeled antibody specific to that phosphorylation site. The proximity between the antibody and the substrate gives a signal known as TR-FRET. As the enzyme is inhibited by compound, less phosphorylated peptide product is made causing a decrease in overall signal.
(§2) Activity assays were performed in a 384-well, small volume, black microplates in an active enzyme volume of 10 μL and final developed volume of 20 μL. Final assay conditions are 50 mM HEPES pH 7.5, 10 mM MgCl2, 1 mM EGTA, 0.01% Brij 35 and 1 mM DTT all at RT. Enzyme, substrate labeled peptide and compound are mixed, and then the reaction is initiated with the addition of ATP at Km concentration for each enzyme. The reaction is allowed to run 60 minutes and then quenched with a 12.5 mM EDTA (ethylenediamine tetraacetic acid) solution. The plate is then developed with the addition of Europium labeled antibody for a final volume of 20 μL and is then incubated for 30 minutes in darkness. Plates are read in a Pherastar plate reader. Data is analyzed in GraphPad PRISM.
(§3) The results of these assays are shown in Table 1, below, wherein “No.” designates compound number (FIG. 1); “A” represents a value of ≤100 nM; “B” a value of >100 nM and ≤1 μM; “C” a value of >1 μM and ≤10 μM; “D” a value of >10 μM; “ND” is not determined. The ratio of Mer to FLT3 is calculated as follows: FLT3 IC50/Mer IC50. “+” represents a ratio of >2.0 and <10; “++” represents a ratio of between 10 and 100; and “+++” represents a ratio of >100.

MERTK = target: T2, MERTK (Homo sapiens, UniProt Q12866); assay: TR-FRET kinase activity assay, MERTK; type: biochemical; conditions: for IC50: TR-FRET activity assay, ATP at Km, 60 minutes, read-out: Mer IC50; for FLT3/Mer ratio (FLT3 IC50/Mer IC50): ratio of Mer to FLT3: FLT3 IC50/Mer IC50
T2 sequence (Q12866 21-999): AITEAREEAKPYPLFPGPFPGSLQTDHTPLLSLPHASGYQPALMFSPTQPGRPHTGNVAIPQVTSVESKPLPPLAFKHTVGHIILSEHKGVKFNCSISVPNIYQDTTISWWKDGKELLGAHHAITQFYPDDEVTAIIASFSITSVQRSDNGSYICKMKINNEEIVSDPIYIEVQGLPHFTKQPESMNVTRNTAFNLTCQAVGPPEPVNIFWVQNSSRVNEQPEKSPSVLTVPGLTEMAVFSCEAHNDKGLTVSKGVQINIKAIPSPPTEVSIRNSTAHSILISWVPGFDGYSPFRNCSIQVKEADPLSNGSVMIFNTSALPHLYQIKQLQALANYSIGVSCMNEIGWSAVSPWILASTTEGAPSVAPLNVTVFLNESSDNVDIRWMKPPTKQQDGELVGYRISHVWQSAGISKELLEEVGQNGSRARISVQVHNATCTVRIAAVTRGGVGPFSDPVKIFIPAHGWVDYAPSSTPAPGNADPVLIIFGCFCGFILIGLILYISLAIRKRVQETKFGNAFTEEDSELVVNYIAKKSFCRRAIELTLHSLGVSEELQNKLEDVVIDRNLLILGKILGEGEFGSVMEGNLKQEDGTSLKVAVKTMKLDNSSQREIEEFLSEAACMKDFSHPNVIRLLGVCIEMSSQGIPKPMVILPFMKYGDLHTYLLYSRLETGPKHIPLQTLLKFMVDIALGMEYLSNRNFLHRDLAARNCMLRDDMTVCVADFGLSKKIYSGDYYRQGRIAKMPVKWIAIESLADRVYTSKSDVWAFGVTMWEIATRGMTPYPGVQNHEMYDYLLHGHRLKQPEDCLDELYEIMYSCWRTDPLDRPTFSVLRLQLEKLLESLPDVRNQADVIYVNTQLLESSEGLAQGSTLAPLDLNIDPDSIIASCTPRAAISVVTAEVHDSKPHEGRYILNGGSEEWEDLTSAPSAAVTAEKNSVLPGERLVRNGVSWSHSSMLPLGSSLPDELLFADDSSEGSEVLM
Procedure: as §1, §2, §3

SMILES | IC50 (AXL) [nM] | IC50 (MERTK) [nM] | FLT3/Mer ratio (FLT3 IC50/Mer IC50) (MERTK)
CCCCCC(C)Nc1ncc2c(C3=CCC(C(=O)N4CCOCC4)CC3)cc(C3CCC(O)CC3)n2n1 (mixture of isomers) [Compound 110] | ≤ 100 | ≤ 100 | ++ (“++” represents a ratio of between 10 and 100)
CCCCC[C@H](C)Nc1ncc2c(-c3ccc(CN4CCN(C)CC4)cc3)cc([C@H]3CC[C@H](O)CC3)n2n1 [Compound 104] | ≤ 100 | ≤ 100 | ++ (“++” represents a ratio of between 10 and 100)
CCCCC[C@H](C)Nc1ncc2c(-c3ccc(CN4CCN(C)CC4)cc3)cc([C@H]3CC[C@@H](O)CC3)n2n1 [Compound 105] | 100 to 1000 | ≤ 100 | + (“+” represents a ratio of >2.0 and <10)
CCCCC[C@H](C)Nc1ncc2c(NC3CCN(C)CC3)cc([C@H]3CC[C@H](O)CC3)n2n1 [Compound 107] | ≤ 100 | ≤ 100 | +++ (“+++” represents a ratio of >100)
CCCCC[C@H](C)Nc1ncc2c([C@H]3CC[C@H](C(=O)N4CCOCC4)CC3)cc([C@H]3CC[C@H](O)CC3)n2n1 [Compound 108] | 100 to 1000 | ≤ 100 | +++ (“+++” represents a ratio of >100)
CCCCC[C@H](C)Nc1ncc2c([C@H]3CC[C@@H](C(=O)N4CCOCC4)CC3)cc([C@H]3CC[C@H](O)CC3)n2n1 [Compound 109, ((cis)-4-(2-((S)-heptan-2-ylamino)-7-((trans)-4-hydroxycyclohexyl)pyrrolo[2,1-f][1,2,4]triazin-5-yl)cyclohexyl)(morpholino)methanone] | ≤ 100 | ≤ 100 | ++ (“++” represents a ratio of between 10 and 100)
COCC(C)Nc1ncc2c(-c3ccc4nccn4c3)cc(C3CCC(O)CC3)n2n1 (stereo not drawn) [Compound 193] | ≤ 100 | ≤ 100 | +++ (“+++” represents a ratio of >100)
COC[C@H](C)Nc1ncc2c(-c3cncc(S(C)(=O)=O)c3)cc([C@H]3CC[C@H](O)CC3)n2n1 [Compound 194] | 100 to 1000 | ≤ 100 | +++ (“+++” represents a ratio of >100)
COC[C@H](C)Nc1ncc2c(-c3cncc(F)c3)cc([C@H]3CC[C@H](O)CC3)n2n1 [Compound 195] | 100 to 1000 | ≤ 100 | +++ (“+++” represents a ratio of >100)
COC[C@H](C)Nc1ncc2c(-c3ccc(C(=O)N4CCCC4)cc3)cc([C@H]3CC[C@H](O)CC3)n2n1 [Compound 196] | ≤ 100 | ≤ 100 | +++ (“+++” represents a ratio of >100)
COC[C@H](C)Nc1ncc2c(-c3ccc(C(=O)N4CCS(=O)(=O)CC4)cc3)cc([C@H]3CC[C@H](O)CC3)n2n1 [Compound 197] | ≤ 100 | ≤ 100 | +++ (“+++” represents a ratio of >100)
COCC(C)Nc1ncc2c(-c3ccc(-c4nnc(C)o4)cc3)cc(C3CCC(O)CC3)n2n1 (stereo not drawn) [Compound 198] | 100 to 1000 | ≤ 100 | +++ (“+++” represents a ratio of >100)
COC[C@H](C)Nc1ncc2c(-c3cncc(C#N)c3)cc([C@H]3CC[C@H](O)CC3)n2n1 [Compound 201] | 100 to 1000 | ≤ 100 | +++ (“+++” represents a ratio of >100)
CC(Nc1ncc2c(-c3ccc(CN4CCOCC4)cc3)cc(C3CCC(O)CC3)n2n1)C(F)(F)F (stereo not drawn) [Compound 202] | 100 to 1000 | ≤ 100 | +++ (“+++” represents a ratio of >100)
C[C@@H](CC(F)(F)F)Nc1ncc2c(-c3ccc(CN4CCOCC4)cc3)cc([C@H]3CC[C@H](O)CC3)n2n1 [Compound 203] | ≤ 100 | ≤ 100 | ++ (“++” represents a ratio of between 10 and 100)
C[C@H](Nc1ncc2c(-c3ccc(CN4CCOCC4)cc3)cc([C@H]3CC[C@H](O)CC3)n2n1)[C@H]1CCCO1 [Compound 204] | 1000 to 10000 | 100 to 1000 | ++ (“++” represents a ratio of between 10 and 100)
C[C@H](Nc1ncc2c(-c3ccc(CN4CCOCC4)cc3)cc([C@H]3CC[C@H](O)CC3)n2n1)[C@@H]1CCCO1 [Compound 205] | 1000 to 10000 | ≤ 100 | +++ (“+++” represents a ratio of >100)
COC[C@H](C)Nc1ncc2c(-c3cnn(C(C)(C)C)c3)cc([C@H]3CC[C@H](O)CC3)n2n1 [Compound 206] | 100 to 1000 | ≤ 100 | +++ (“+++” represents a ratio of >100)
COC[C@H](C)Nc1ncc2c(-c3cnn(C(F)F)c3)cc([C@H]3CC[C@H](O)CC3)n2n1 [Compound 207] | ≤ 100 | ≤ 100 | +++ (“+++” represents a ratio of >100)
COC[C@H](C)Nc1ncc2c(-c3ccn(C)n3)cc([C@H]3CC[C@H](O)CC3)n2n1 [Compound 208] | 100 to 1000 | ≤ 100 | +++ (“+++” represents a ratio of >100)
COCCn1cc(-c2cc([C@H]3CC[C@H](O)CC3)n3nc(N[C@@H](C)COC)ncc23)cn1 [Compound 209] | 100 to 1000 | ≤ 100 | +++ (“+++” represents a ratio of >100)
COC[C@H](C)Nc1ncc2c(-c3cccc4c3CNC4=O)cc([C@H]3CC[C@H](O)CC3)n2n1 [Compound 210] | 100 to 1000 | ≤ 100 | +++ (“+++” represents a ratio of >100)
COCC[C@@H](C)Nc1ncc2c(-c3ccc(CN4CCOCC4)cc3)cc([C@H]3CC[C@H](O)CC3)n2n1 [Compound 212] | 100 to 1000 | ≤ 100 | ++ (“++” represents a ratio of between 10 and 100)
